Measurements published in the supplement of paper PMC11061612.

Key:
Test in all cases: combination Emax (second highest fraction inhibited in the dose matrix, 72 h); higher = more inhibition; extreme values may be limits of the assay
[1] = tested on: CAL-148 (Breast Carcinoma)
Outline: (§1)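 After 24 hours at 37°C and 5% CO2 in 1536-well plates, cells in DMEM/F12 or RPMI plus 10% FBS received two-drug dose matrices for 72 hours. Viability came from CellTiter-Glo 2.0 luminescence and was scaled as inhibition, anchored at 0 by vehicle wells and at 1 by blank wells. Combination Emax is taken as the second-highest inhibition in the matrix, and Bliss excess as the observed combination effect less EA + EB − EA·EB, with EA and EB the single-agent effects.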

[2] = tested on: CCRF-CEM (T-Lymphoblastic Leukemia)
Outline: as §1

[3] = tested on: Calu-3 (Lung Adenocarcinoma)
Outline: as §1

[4] = tested on: DoTc2-4510 (Cervical Carcinoma)
Outline: as §1

[5] = tested on: HCC-78 (Lung Adenocarcinoma)
Outline: as §1

[6] = tested on: HO-1-N-1 (Oral Cavity Carcinoma)
Outline: as §1

HOS (Osteosarcoma) = tested on: HOS (Osteosarcoma)
Outline: as §1

[7] = tested on: HT-1376 (Bladder Carcinoma)
Outline: as §1

[8] = tested on: Hs-578-T (Breast Carcinoma)
Outline: as §1

[9] = tested on: KURAMOCHI (Ovarian Carcinoma)
Outline: as §1

[10] = tested on: LB831-BLC (Bladder Carcinoma)
Outline: as §1

[11] = tested on: LS-180 (Colorectal Carcinoma)
Outline: as §1

[12] = tested on: ME-1 (Acute Myeloid Leukemia)
Outline: as §1

NB10 (Neuroblastoma) = tested on: NB10 (Neuroblastoma)
Outline: as §1

[13] = tested on: NCI-H2085 (Non-Small Cell Lung Carcinoma)
Outline: as §1

[14] = tested on: NCI-H82 (Small Cell Lung Carcinoma)
Outline: as §1

[15] = tested on: Ramos-2G6-4C10 (Burkitt's Lymphoma)
Outline: as §1

[16] = tested on: TE-15 (Esophageal Squamous Cell Carcinoma)
Outline: as §1

[17] = tested on: TE-9 (Esophageal Squamous Cell Carcinoma)
Outline: as §1

[18] = tested on: UM-UC-3 (Bladder Carcinoma)
Outline: as §1

Row | Compound | combination Emax [1] | combination Emax [2] | combination Emax [3] | combination Emax [4] | combination Emax [5] | combination Emax [6] | combination Emax (HOS (Osteosarcoma)) | combination Emax [7] | combination Emax [8] | combination Emax [9] | combination Emax [10] | combination Emax [11] | combination Emax [12] | combination Emax (NB10 (Neuroblastoma)) | combination Emax [13] | combination Emax [14] | combination Emax [15] | combination Emax [16] | combination Emax [17] | combination Emax [18]
1 | CS(=O)(=O)CCNCc1ccc(-c2ccc3ncnc(Nc4ccc(OCc5cccc(F)c5)c(Cl)c4)c3c2)o1 [Lapatinib] + NC1(c2ccc(-c3nc4ccn5c(=O)[nH]nc5c4cc3-c3ccccc3)cc2)CCC1 [MK-2206] (first compound max 10 µM, 7x7, partner max 10 µM) | 0.996 | 0.892 | 0.954 | 0.888 | 0.264 | 0.963 | 0.561 | 0.177 | 0.936 | 0.763 | 0.39 | 0.795 | 0.301 | 0.903 | 0.587 | 0.932 | 0.954 | 0.831 | 0.306 | 0.253
2 | N#Cc1cnc(Nc2cc(NC[C@H]3CNCCO3)c(C(F)(F)F)cn2)cn1 [SRA737] + Nc1ccn([C@@H]2O[C@H](CO)[C@@H](O)C2(F)F)c(=O)n1 [Gemcitabine] (first compound max 10 µM, 7x7, partner max 0.3 µM) | 0.845 | 1 | 0.67 | 0.803 | 0.906 | 1 | 0.752 | 0.442 | 0.837 | 0.673 | 0.911 | 0.804 | 0.66 | 0.946 | 0.595 | 0.978 | 0.976 | 0.923 | 0.52 | 0.966
3 | Cc1c2c(nn1C)CSCc1cc(n(C)n1)CSc1cc(c3ccccc3c1)OCCCc1c(C(=O)O)n(C)c3c-2c(Cl)ccc13 [AZD5991] + CC(=O)O[C@H]1C(=O)[C@@]2(C)[C@H]([C@H](OC(=O)c3ccccc3)[C@]3(O)C[C@H](OC(=O)[C@H](O)[C@@H](NC(=O)c4ccccc4)c4ccccc4)C(C)=C1C3(C)C)[C@]1(OC(C)=O)CO[C@@H]1C[C@@H]2O [Paclitaxel] (first compound max 1 µM, 7x7, partner max 3 µM) | 0.81 | 0.992 | 0.346 | 0.544 | 0.433 | 1 | 0.964 | 0.0587 | 0.988 | 0.539 | 0.733 | 0.822 | 0.715 | 0.915 | 0.743 | 0.997 | 1 | 0.998 | 0.789 | 0.745
4 | C[C@@H](Nc1cc(F)cc(F)c1)c1cc(C(=O)N(C)C)cc2c(=O)cc(N3CCOCC3)oc12 [AZD8186] + C1CN(CCC1(C(=O)N[C@@H](CCO)C2=CC=C(C=C2)Cl)N)C3=NC=NC4=C3C=CN4 [AZD5363] (first compound max 10 µM, 7x7, partner max 10 µM) | 0.989 | 0.411 | 0.318 | 0.286 | 0.34 | 0.54 | 0.336 | 0.116 | 0.7 | 0.254 | 0.442 | 0.419 | 0.103 | 0.228 | 0.542 | 0.358 | 0.26 | 0.496 | 0.198 | 0.4
5 | CN(CCO)CC[C@H](CSc1ccccc1)Nc1ccc(S(=O)(=O)NC(=O)c2ccc(N3CCC([C@@H](O)c4ccccc4-c4ccc(Cl)cc4)CC3)cc2)cc1S(=O)(=O)C(F)(F)F [AZD4320] + CS(=O)(=O)CCNCc1ccc(-c2ccc3ncnc(Nc4ccc(OCc5cccc(F)c5)c(Cl)c4)c3c2)o1 [Lapatinib] (first compound max 1 µM, 7x7, partner max 10 µM) | 0.94 | 1 | 0.989 | 0.974 | 0.238 | 0.97 | 0.348 | 0.508 | 0.99 | 0.939 | 0.858 | 0.505 | 1 | 0.705 | 0.807 | 0.69 | 0.961 | 0.761 | 0.931 | 0.392
6 | O=C(c1cc(Cc2n[nH]c(=O)c3ccccc23)ccc1F)N1CCN(C(=O)C2CC2)CC1 [Olaparib] + CN(CC[C@H](CSC1=CC=CC=C1)NC2=C(C=C(C=C2)S(=O)(=O)NC(=O)C3=CC=C(C=C3)N4CCC(CC4)[C@H](C5=CC=CC=C5C6=CC=C(C=C6)Cl)O)S(=O)(=O)C(F)(F)F)CCO [AZD4320] (first compound max 10 µM, 7x7, partner max 1 µM) | 0.83 | 0.986 | 0.257 | 0.668 | 0.241 | 0.352 | 0.277 | 0.215 | 0.62 | 0.379 | 0.409 | 0.227 | 1 | 0.389 | 0.289 | 0.382 | 0.404 | 0.22 | 0.321 | 0.188
